Key:
[1] = according to Jauslin M. L. et al., 2003, FASEB J.; cited from earlier work
HUH-7 cells = experiment: ROS production induced by Antimycin A, lucigenin chemiluminescence assay; format: cell-based, human; details: Antimycin A 0, 1 and 5 μM, MitoQ 0 to 1000 nmol, 3 hours at 37° C.
Description: HUH-7 cells are incubated in 6 well plates and stimulated with Antimycin A in concentration 0-25 μM (0, 1 and 5 μM) simultaneously with or without MitoQ in concentration range from 0 to 1000 nmol dissolved in DMEM (Gibco) for 3 hours at 37° C. The light reaction between superoxide and lucigenin is detected. X axis represents a concentration range of MitoQ [nM] whereas y axis the chemiluminescence signal expressed as average counts per minute [cpm] after normalization to cell number determined by cell counter.
Another approach allows measurement of the ROS production induced by antimycin A or rotenone by using lucigenin chemiluminescence assay (experimental set up as in Example 9) in e.g. HUH-7 or Tib-73. HUH-7 cells are incubated in 6 well plates and stimulated by using antimycin A in concentration 0-25 μM (preferably 0, 1 and 5 μM) simultaneously with or without MitoQ (or MitoS) in concentration range from 0 to 1000 nmol dissolved in DMEM (Gibco) for 3 hours at 37° C. […] The light reaction between superoxide and lucigenin is detected using a chemiluminescence reader (Lumistar, BMG laboratories, Germany). The chemiluminescence signal is expressed as average counts per minute and normalized to cell number as determined by cell counter (Casy Technology Instrument, Schärfe-System, Germany).

hemoxygenase 1 (HO-1) = experiment: Western blot of hemoxygenase 1 in liver extracts of DDC intoxicated mice; format: in vivo, mouse; details: DDC 3 days, daily i.p. MitoQ in PBS/1% DMSO (112 nmol/kg), versus DDC intoxicated mice
Description: To evaluate hemoxygenase 1 (HO-1) protein expression know to be induced by oxidative stress (Suematsu M. and Ishimura Y., 2000, Hepatology, 31(1): 3-6) standard western blot analysis is performed using protein extracts derived from DDC intoxicated mice treated simultaneously for 3 days with MitoQ (diluted in 1% DMSO in PBS) or just vehicle itself (see protocols in Example 3).
Liver tissues are resuspended in ice-cold RIPA-buffer (50 mM Tris-HCl pH 7.4, 250 mM NaCl, 0.1% SDS, 1% deoxycholate, 1% NP-40) supplemented with 2 μg/ml leupeptin, 2 μg/ml pepstatin, 2 μg/ml aprotinin, 1 mM phenylmethylsulfonylfluoride (PMSF), and 2 mM dithiothreitol followed by homogenization through sonication (2 bursts of 5 seconds) on ice. After incubation for 20 minutes on ice, the lysates are cleared by two centrifugational steps in a microcentrifuge at 13 000 rpm for 15 minutes at 4° C. and the supernatants are collected. Protein concentrations are determined by the Bradford assay (Biorad) using bovine serum albumin as a standard. […] The intensities of the bands can be analysed densitometrically using ChemiImager 5500 software (Alpha Innotech) and each signal normalised to the intensity of the corresponding HO-2 (showing 7 fold reduction of HO-1 upon MitoQ treatment when compared to DDC intoxicated group of animals), or alternatively to β-actin.

HepG2 cells = experiment: ROS production (DCF fluorescence) in HepG2 cells, basal and CoCl2 stimulated; format: cell-based, human
Description: Alternatively, the generation of ROS is measured by using the fluoroprobe 5-(and-6)-chloromethyl-2′,7′-dichlorodihydrofluorescein diacetate acetyl ester (CM-H2DCFDA, Molecular Probes, Goettingen, Germany) which is converted to fluorescent dichlorofluorescien (DCF; Djordjevic T. et al., 2004, Antioxidants & Redox Signaling, 6: 713-720). To determine DCF fluorescence in a microplate reader (Tecan, Crailsheim, Germany), cells (e.g. HepG2, Hep3B or SNU-398) are grown in 96-well plates to 80% confluency. […] After several washes with HBSS to remove excess dye, fluorescence is monitored by using 480 nm excitation and 540 nm emission wavelength. DCF fluorescence is standardized to the number of viable cells using the Alamar Blue test according to the manufacturer's instructions (Biosource, Nivelles, Belgium). […] The absorbance is then measured at the wavelength of […].
In another experiment HepG2 stimulated by 100 μM CoCl2 (Sigma) are used (Bel Aiba R. S. et al., 2004,. Biol Chem. 385:249-57). […] The fluorescence is measured in a plate-reader (Tecan Safire) after 0, 10, 20 and 30 minutes (Djordjevic T, et al., 2005, Free Radic Biol Med. 38:616-30).

[2] = tested on: human cell lines intoxicated with DDC or BSO; experiment: ROS formation in cell lines intoxicated with DDC or BSO; format: cell-based; details: simultaneous treatment at concentrations corresponding to EC50
Description: Another simple set of experiments employing hepatoma cell lines (e.g. HepG2 or Hep3B), the SNU-398 hepatocellular carcinoma-derived cell line (ATCC No. CRL-2233, LGC Promochem, Germany), the HUH-7 human carcinoma-derived cell line (Japanese collection of Research Biosources JCRB 0403) or the Tib-73 mouse embryonic liver cell line (ATCC TIB 73=BNL CL2 derived from BAL/c mouse, MD, USA) allows measurement of ROS production in these cells upon DDC intoxication.
To determine ROS production in for example hepatoma cell lines a standard experimental protocol according to Example 8 is applied. Tested hepatoma cells are grown in 96-well plates in culture medium (DMEM supplemented with 10% FCS, Gibco) to 80% confluency, subsequently washed with HBSS and incubated in the dark with DHE (10-50 μM) for 10 minutes at 37° C. Cells are then washed twice with Hank's balanced salt solution (HBSS, Gibco) to remove excess dye. Fluorescence is monitored in a fluorescence microscope (Olympus, Hamburg, Germany).
Alternatively, the generation of ROS is measured by using the fluoroprobe 5-(and-6)-chloromethyl-2′,7′-dichlorodihydrofluorescein diacetate acetyl ester (CM-H2DCFDA, Molecular Probes, Goettingen, Germany) which is converted to fluorescent dichlorofluorescien (DCF; Djordjevic T. et al., 2004, Antioxidants & Redox Signaling, 6: 713-720). To determine DCF fluorescence in a microplate reader (Tecan, Crailsheim, Germany), cells (e.g. HepG2, Hep3B or SNU-398) are grown in 96-well plates to 80% confluency. […] After several washes with HBSS to remove excess dye, fluorescence is monitored by using 480 nm excitation and 540 nm emission wavelength. DCF fluorescence is standardized to the number of viable cells using the Alamar Blue test according to the manufacturer's instructions (Biosource, Nivelles, Belgium). […] The absorbance is then measured at the wavelength of 580 μm.

MitoQ
EC50 [1]: 0.51 nM | ROS formation (lucigenin chemiluminescence) (HUH-7 cells): significant reduction in ROS formation | reduction of HO-1 protein expression normalised to HO-2 (hemoxygenase 1 (HO-1)): 7 fold | CoCl2-stimulated ROS production (relative DCF fluorescence) (HepG2 cells; HepG2 cells, 100 μM CoCl2, 5 μM MitoQ): significantly decrease | basal ROS production (relative DCF fluorescence) (HepG2 cells; unstimulated HepG2 cells, 5 μM MitoQ): significantly decrease | ROS formation [2]: significant reduction in ROS formation

Source: patent publication US20070225255A1, “Use of Mitochondrially Targeted Antioxidant in the Treatment of Liver Diseases and Epithelial Cancers” (priority 2004, published 2007)
